Data taken from patent publication US10507207B2, “Non-nucleosidic inhibitors of reverse transcriptase as antagonists of cell proliferation and inducers of cell differentiation” (ISTITUTO SUPERIORE DI SANITA, priority 2001, dated 2019).

Legend:
endogenous RT activity = test: PCR-based functional RT activity assay (MS2 RNA) with F9 lysate; type: biochemical, murine; conditions: cell lysate pre-incubated with 100 μM
Text: FIG. 1: Reverse transcriptase in murine and human cell lines. FIG. 1A. […] Lanes M, DNA molecular weight markers; lane 23, positive control reaction with commercial Rt. FIG. 1B. Western analysis of RT proteins (upper panels) and α-tubulin (lower panels) in WCE and nuclei. WCE were from: F9 (lane 1), NIH/3T3 (lane 2), MCF7 (lane 3), MDA-231 (lane 4), NB4 (lane 5), HL60 (lane 6) and ML2 blasts (lane 7). Nuclear extracts were from: F9 (lane 1), MCF7 (lane 2), MDA-231 (lane 3), NIH 3T3 (lane 4), HL60 (lane 5) and NB4 (lane 6).
The RT enzymatic activity, which is the target of the inhibitors described herein, has been detected in all cell lines, of both murine and human origin, that have been tested in this work using a PCR-based assay. […] The presence of RT enzyme in tumor cells is further confirmed by Western blot analysis.

[1] = system: murine and human cell lines; test: Cell proliferation by cell counting, all cell lines; type: cell-based; conditions: 350 μM nevirapine vs DMSO control
Protocol: Cells were cultured with (dashed line) and without (DMSO, solid line) nevirapine. The proliferation rate is expressed as the ratio of counted cells at the indicated times relative to the initial number of seeded cells, taken as 1. Points represent the mean value and bars the standard deviation from at least three independent assays for all cell types.
(§1) Samples were withdrawn at specific times and cells were counted in nevirapine-exposed and control (DMSO-exposed) cultures. […] Saos-2 osteosarcoma cells were the most slowly responsive type, and only after 5 days of exposure did the growth rate begin to decrease compared to control cultures.

F9 teratocarcinoma cells = test: Cell proliferation by cell counting; type: cell-based, murine; conditions: 350 μM nevirapine, after 120 h of exposure
Protocol: NIH/3T3 embryo fibroblasts and F9 teratocarcinoma cells were cultured in DMEM containing 10-20% fetal serum and two concentrations of efavirenz, i.e. 10 and 20 μM, diluted from a stock solution (10 mM) in 100% DMSO. Cells were plated at a density of 2-5×10^4 in 35 mm Petri dishes and exposed to efavirenz 5-6 hours later. Samples were withdrawn at specific times and cells were counted in efavirenz-exposed compared to parallel non-exposed cell cultures.

[2] = system: Saos-2 osteosarcoma cells; test: Cell proliferation by cell counting; type: cell-based, human; conditions: 350 μM nevirapine vs control cultures
Protocol: as §1
The effect of efavirenz was further tested in human HeLa adenocarcinoma and Saos-2 osteosarcoma cells. Both cell lines were cultured in the conditions described above (Example 6). To establish if prolonged exposure to the drug improved the effectiveness of growth inhibition, both cell lines were exposed to efavirenz in two subsequent cycles: during the 1st cycle cells were continuously exposed to 20 μM efavirenz for 5 days; cells were then diluted, reseeded again and the 2nd cycle exposure was initiated the following day with fresh drug. […] The inhibitory effect was time-dependent, since in both HeLa and Saos-2 cultures, the 1st cycle of exposure (5 days) yielded a 1.6- and 1.5-fold reduction, respectively, whereas a 5- and 4-fold reduction was obtained in the 2nd cycle (carried out until day 20 from the onset of exposure).

NIH/3T3 = test: FACS cell cycle analysis; type: cell-based, murine; conditions: after 72 h of nevirapine treatment
Text: FIG. 3A. Cell cycle analysis in control and nevirapine-exposed cells. […] In the U343 glioma cell line, the cell cycle was separately analysed in the diploid cell fraction (representing about ⅔ of all cells) and in the remaining fraction (about ⅓) which develops aneuploidy. FIG. 3B. […] The filter was reprobed with anti-actin antibody to control equal loading (lower panel).

NB4 cells [3] = test: Morphological differentiation, Wright-Giemsa staining; type: cell-based, human; conditions: five days of nevirapine treatment (400 μM)
HL60 cells = test: as above; type: cell-based, human; conditions: five days of nevirapine treatment (400 μM)
Kasumi-1 cells [4] = test: Differentiation of AML cells poorly sensitive to RA; type: cell-based, human; conditions: nevirapine treatment
primary AML blasts = test: as above; type: cell-based, human; conditions: nevirapine treatment
AML#1 = test: Cytofluorimetric analysis of cell surface markers; type: cell-based, human; conditions: AML#1, NEV 450 μM, 4 days
NB4 cells [5] = test: Growth, viable cell count; type: cell-based, human; conditions: NB4, Nev 350 μM, 4 days
Kasumi-1 cells [6] = test: Growth, viable cell count; type: cell-based, human; conditions: Kasumi-1, Nev 350 μM, 4 days
AML #1 = test: Growth, viable cell count; type: cell-based, human; conditions: AML #1, Nev 350 μM, 4 days
NB4 cells [7] = test: NBT dye reduction assay; type: cell-based, human; conditions: NB4, Nev 350 μM, 4 days
Kasumi-1 cells [8] = test: NBT dye reduction assay; type: cell-based, human; conditions: Kasumi-1, Nev 350 μM, 4 days
AML #2 = test: NBT dye reduction assay; type: cell-based, human; conditions: AML #2, Nev 350 μM, 4 days
[9] = system: human acute myeloid leukemia (AML) cells; test: NBT dye reduction assay, summary over Table 2; type: cell-based; conditions: nevirapine treatment vs control (Table 2)
Morris 3924A hepatoma = test: Morris 3924A rat hepatoma in vivo
Protocol: Rat strain: ACI/T inbred (about 180 gr)
Tumor: Morris 3924A hepatoma is a fast-growing tumor which develops in inbred ACI/T animals. Three weeks after inoculation the tumor size is about 10 cm^3.
Preparation of tumor cells: hepatoma tumor cells are prepared from the animal about two weeks after inoculation. The tumor is surgically removed from the animal, separated from connective and necrotic tissues and minced in small pieces. Tumor fragments are then suspended in sterile physiological solution and inoculated in the internal site of one thigh using a 20 ml-syringe with a large size needle. Routinely 0.5 ml of cell suspension are injected. The success rate of tumor implantation is nearly 99%.
On the eleventh day, hepatoma cells were inoculated subcutaneously in pre-treated and in three non-treated control rats.
Procedures and Results: Morris hepatoma cells were inoculated in 4 rats ([…]). The same day, treatment with efavirenz was initiated in two of them by injecting 1 mg/rat/day.

ascite tumor = test: BALB/C mice inoculated with ascite tumor; type: in vivo; conditions: nevirapine 1 mg/mouse/day intraperitoneally for seven days from day of inoculation; controls 5/5 tumor
Protocol: Procedure: 10 BALB/C mice were inoculated intraperitoneally (twice) with ascite tumor cells by injecting 0.2 ml of ascite withdrawn from an animal inoculated 8 days before. […] Mice were treated continuously with nevirapine for seven days.

For Cc1ccnc2c1NC(=O)c1cccnc1N2C1CC1 [nevirapine, 5,11-dihydro-11-cyclopropyl-4-methyl-6H-dipyrido-[3,2-b:2′,3′-e][1,4]diazepin-6-one], the “RT activity, 112 bp-product” value (endogenous RT activity) was “abolished”, the rate of proliferation [1] was “decreases the rate of proliferation in all cell lines” and the “reduction in the proliferation rate” value (F9 teratocarcinoma cells) was 5 fold. For the same molecule, the “exposure after which the growth rate begins to decrease” value [2] was 5 days, the “cells with a G0/G1 DNA content” value (NIH/3T3) was “accumulated” and the morphology (NB4 cells [3]) was “myelomonocytic-like morphology was evident”. For the same molecule, the morphology (HL60 cells) was “myelomonocytic-like morphology was evident”, the “differentiation (morphological, functional, immunophenotypic)” value (Kasumi-1 cells [4]) was “triggering differentiation” and the “differentiation (morphological, functional, immunophenotypic)” value (primary AML blasts) was “triggering differentiation”. The “CD11b mean fluorescence intensity” value (AML#1) was 5.9 AU, the “CD14 mean fluorescence intensity” value (AML#1) was 8.8 AU and the “CD15 mean fluorescence intensity” value (AML#1) was 15.6 AU. For the same molecule, the “Viable cells N^0 × 10^5” value (NB4 cells [5]) was 2.6 ± 0.4 × 10^5, the “Viable cells N^0 × 10^5” value (Kasumi-1 cells [6]) was 4.5 ± 0.9 × 10^5 and the “Viable cells N^0 × 10^5” value (AML #1) was 0.6 ± 0.1 × 10^5. For the same molecule, the “NBT+ (%)” value (NB4 cells [7]) was 37.2 ± 1.4%, the “NBT+ (%)” value (Kasumi-1 cells [8]) was 31.2 ± 1.1% and the “NBT (%)” value (AML #2) was 68.1 ± 1.4%. The “increase in the number of positive cells in the NBT dye reduction assay” value [9] was 2.0-3.5 fold, the “tumor at the site of injection” value (Morris 3924A hepatoma; nevirapine 18 mg/rat/day pre-treatment for 11 days, 17 days from inoculation, only one of 3 treated rats, controls 2-4 cm^3) was “small nodule of a few millimeters” and the “rats in which onset and growth of hepatoma were antagonized (remained permanently healthy)” value (Morris 3924A hepatoma; nevirapine 18 mg/rat/day pre-treatment for 11 days, untreated 3/3 develop tumor) was “⅔”. The “histology of tumor tissue” value (Morris 3924A hepatoma; nevirapine-treated rat vs untreated sample) was “transformed areas are remarkably reduced, and cells present clear apoptotic features” and the “treated animals remaining healthy with no evidence of tumor growth” value (ascite tumor) was “⅗”.
